Measurements: patent US10376520B2, “Methods for the treatment of cardiovascular disorders” (Galapagos NV, priority 2015, dated 2019)

Tested on: RA patients
Experiment: LDL determination, Study 2 (RA patients, monotherapy)
Format: in vivo, human
Details: for [LDL] Mean CFB / [LDL] Median CFB: Study 2 12 weeks results
Description: Randomized, double-blind, placebo-controlled, multicenter, phase IIb dose finding study of Compound 1 (dosed as a [Compound 1:HCl:3H2O]) administered for 24 weeks as monotherapy to subjects with moderately to severely active rheumatoid arthritis who have an inadequate response to methotrexate alone
Double-blind, placebo-controlled, monotherapy study in subjects with moderately to severely active RA who have an inadequate response to methotrexate (MTX) (oral or parenteral).
280 subjects randomized to one of 3 doses of Compound 1 (dosed as a [Compound 1:HCl:3H2O]) or to placebo, given once daily (q.d.).
Twelve weeks of treatment with Compound 1 (dosed as a [Compound 1:HCl:3H2O]) at 50 mg, 100 mg, or 200 mg q.d.; or placebo. At Week 12, all subjects on placebo and the subjects on the 50 mg dose who have not achieved 20% improvement in swollen joint count (SJC66) and tender joint count (TJC68) will be assigned to 100 mg q.d. in a blinded fashion and will continue treatment until Week 24. Subjects in the other groups will maintain their randomized treatment until Week 24.
The determination of [LDL]-cholesterol is made using an automated method taking advantage of the selective micellary solubilization of [LDL]-cholesterol by a nonionic detergent and the interaction of a sugar compound and lipoproteins (VLDL and chylomicrons).
When a detergent is included in the enzymatic method for cholesterol determination (cholesterol esterase, cholesterol oxidase coupling reaction), the relative reactivities of cholesterol in the lipoprotein fractions increase in this order: [HDL]<chylomicrons <VLDL <[LDL]. In the presence of Mg^2+, a sugar compound markedly reduces the enzymatic reaction of the cholesterol measurement in VLDL and chylomicrons. The combination of a sugar compound with detergent enables the selective determination of [LDL]-cholesterol in serum. (Friedewald et al., 1972; Rifai et al., 1992)
Homogeneous enzymatic colorimetric assay.
In the presence of peroxidase, the hydrogen peroxide generated reacts with 4-aminoantipyrine and Sodium N-(2-hydroxy-3-sulfopropyl)-3,5-dimethoxyaniline (HSDA) to form a purple-blue dye.
The color intensity of this dye is directly proportional to the cholesterol concentration and is measured photometrically.
Human serum and plasma samples [LDL] determination was done on a Roche/Hitachi Cobas c 701/702 system which automatically calculate the analyte concentration of each sample. Samples containing precipitates are centrifuged before performing the assay.

[1] = 50 mg q.d. non responders switching to 100 mg q.d. at week 12, week 1
[2] = 50 mg q.d. non responders switching to 100 mg q.d. at week 12, week 2
[3] = 50 mg q.d. non responders switching to 100 mg q.d. at week 12, week 4
[4] = 50 mg q.d. non responders switching to 100 mg q.d. at week 12, week 8
[5] = 50 mg q.d. non responders switching to 100 mg q.d. at week 12, week 12

Compound: O=C(Nc1nc2cccc(-c3ccc(CN4CCS(=O)(=O)CC4)cc3)n2n1)C1CC1 [Compound 1, cyclopropanecarboxylic acid {5-[4-(1,1-dioxo-thiomorpholin-4-ylmethyl)-phenyl]-[1,2,4]triazolo[1,5-a]pyridin-2yl}-amide]
- [LDL] Mean percentage CFB - 24 weeks results [1]: −0.30%
- [LDL] Median percentage CFB - 24 weeks results [1]: 2.72%
- [LDL] Mean percentage CFB - 24 weeks results [2]: 1.96%
- [LDL] Median percentage CFB - 24 weeks results [2]: −0.66%
- [LDL] Mean percentage CFB - 24 weeks results [3]: 6.21%
- [LDL] Median percentage CFB - 24 weeks results [3]: 1.36%
- [LDL] Mean percentage CFB - 24 weeks results [4]: 4.76%
- [LDL] Median percentage CFB - 24 weeks results [4]: 2.69%
- [LDL] Mean percentage CFB - 24 weeks results [5]: 6.13%
- [LDL] Median percentage CFB - 24 weeks results [5]: 3.06%
- [LDL] Median percentage CFB - 24 weeks results (50 mg q.d. non responders switching to 100 mg q.d. at week 12, week 16): 7.11%
- [LDL] Median percentage CFB - 24 weeks results (50 mg q.d. non responders switching to 100 mg q.d. at week 12, week 20): −0.80%
- [LDL] Median percentage CFB - 24 weeks results (50 mg q.d. non responders switching to 100 mg q.d. at week 12, week 24): 5.60%
- [LDL] Mean percentage CFB - 24 weeks results (50 mg q.d. responders, week 1): −0.43%
- [LDL] Median percentage CFB - 24 weeks results (50 mg q.d. responders, week 1): −0.29%
- [LDL] Mean percentage CFB - 24 weeks results (50 mg q.d. responders, week 2): −2.56%
- [LDL] Median percentage CFB - 24 weeks results (50 mg q.d. responders, week 2): −2.27%
- [LDL] Mean percentage CFB - 24 weeks results (50 mg q.d. responders, week 4): 2.09%
- [LDL] Median percentage CFB - 24 weeks results (50 mg q.d. responders, week 4): −1.14%
- [LDL] Mean percentage CFB - 24 weeks results (50 mg q.d. responders, week 8): 6.10%
- [LDL] Median percentage CFB - 24 weeks results (50 mg q.d. responders, week 8): 5.33%
- [LDL] Mean percentage CFB - 24 weeks results (50 mg q.d. responders, week 12): 3.64%
- [LDL] Median percentage CFB - 24 weeks results (50 mg q.d. responders, week 12): 0.69%
- [LDL] Mean percentage CFB - 24 weeks results (50 mg q.d. responders, week 16): 7.12%
- [LDL] Median percentage CFB - 24 weeks results (50 mg q.d. responders, week 16): 7.71%
- [LDL] Mean percentage CFB - 24 weeks results (50 mg q.d. responders, week 20): 1.20%
- [LDL] Median percentage CFB - 24 weeks results (50 mg q.d. responders, week 20): 3.91%
- [LDL] Mean percentage CFB - 24 weeks results (50 mg q.d. responders, week 24): 1.97%
- [LDL] Median percentage CFB - 24 weeks results (50 mg q.d. responders, week 24): −0.19%
- [LDL] Mean percentage CFB - 12 weeks results (50 mg q.d., week 1): −0.40%
- [LDL] Median percentage CFB - 12 weeks results (50 mg q.d., week 1): 0.18%
- [LDL] Mean percentage CFB - 12 weeks results (50 mg q.d., week 2): −1.59%
- [LDL] Median percentage CFB - 12 weeks results (50 mg q.d., week 2): −1.23%
- [LDL] Mean percentage CFB - 12 weeks results (50 mg q.d., week 4): 2.97%
- [LDL] Median percentage CFB - 12 weeks results (50 mg q.d., week 4): 0.76%
- [LDL] Mean percentage CFB - 12 weeks results (50 mg q.d., week 8): 5.80%
- [LDL] Median percentage CFB - 12 weeks results (50 mg q.d., week 8): 4.49%
- [LDL] Mean percentage CFB - 12 weeks results (50 mg q.d., week 12): 4.19%
- [LDL] Median percentage CFB - 12 weeks results (50 mg q.d., week 12): 1.14%
- [LDL] Mean percentage CFB - 12 weeks results (100 mg q.d., week 1): 6.36%
- [LDL] Mean percentage CFB - 24 weeks results (100 mg q.d., week 1): 6.36%
- [LDL] Median percentage CFB - 12 weeks results (100 mg q.d., week 1): 1.97%
- [LDL] Median percentage CFB - 24 weeks results (100 mg q.d., week 1): 1.97%
- [LDL] Mean percentage CFB - 12 weeks results (100 mg q.d., week 2): 6.15%
- [LDL] Mean percentage CFB - 24 weeks results (100 mg q.d., week 2): 6.15%
- [LDL] Median percentage CFB - 24 weeks results (100 mg q.d., week 2): −1.82%
- [LDL] Mean percentage CFB - 12 weeks results (100 mg q.d., week 4): 10.29%
- [LDL] Mean percentage CFB - 24 weeks results (100 mg q.d., week 4): 10.29%
- [LDL] Median percentage CFB - 12 weeks results (100 mg q.d., week 4): 5.08%
- [LDL] Median percentage CFB - 24 weeks results (100 mg q.d., week 4): 5.08%
- [LDL] Mean percentage CFB - 12 weeks results (100 mg q.d., week 8): 7.39%
- [LDL] Mean percentage CFB - 24 weeks results (100 mg q.d., week 8): 7.39%
- [LDL] Median percentage CFB - 12 weeks results (100 mg q.d., week 8): 5.34%
- [LDL] Median percentage CFB - 24 weeks results (100 mg q.d., week 8): 5.34%
- [LDL] Mean percentage CFB - 12 weeks results (100 mg q.d., week 12): 14.31%
- [LDL] Mean percentage CFB - 24 weeks results (100 mg q.d., week 12): 14.31%
- [LDL] Median percentage CFB - 12 weeks results (100 mg q.d., week 12): 5.78%
- [LDL] Median percentage CFB - 24 weeks results (100 mg q.d., week 12): 5.78%
- [LDL] Mean percentage CFB - 24 weeks results (100 mg q.d., week 16): 12.10%
- [LDL] Median percentage CFB - 24 weeks results (100 mg q.d., week 16): 7.81%
- [LDL] Mean percentage CFB - 24 weeks results (100 mg q.d., week 20): 12.84%
- [LDL] Median percentage CFB - 24 weeks results (100 mg q.d., week 20): 7.74%
- [LDL] Mean percentage CFB - 24 weeks results (100 mg q.d., week 24): 14.01%
- [LDL] Median percentage CFB - 24 weeks results (100 mg q.d., week 24): 9.61%
- [LDL] Mean percentage CFB - 12 weeks results (200 mg q.d., week 1): 8.06%
- [LDL] Mean percentage CFB - 24 weeks results (200 mg q.d., week 1): 8.06%
- [LDL] Median percentage CFB - 12 weeks results (200 mg q.d., week 1): 6.59%
- [LDL] Median percentage CFB - 24 weeks results (200 mg q.d., week 1): 6.59%
- [LDL] Mean percentage CFB - 12 weeks results (200 mg q.d., week 2): 8.39%
- [LDL] Mean percentage CFB - 24 weeks results (200 mg q.d., week 2): 8.39%
- [LDL] Median percentage CFB - 12 weeks results (200 mg q.d., week 2): 5.81%
- [LDL] Median percentage CFB - 24 weeks results (200 mg q.d., week 2): 5.81%
- [LDL] Mean percentage CFB - 12 weeks results (200 mg q.d., week 4): 9.99%
- [LDL] Mean percentage CFB - 24 weeks results (200 mg q.d., week 4): 9.99%
- [LDL] Median percentage CFB - 12 weeks results (200 mg q.d., week 4): 10.14%
- [LDL] Median percentage CFB - 24 weeks results (200 mg q.d., week 4): 10.14%
- [LDL] Mean percentage CFB - 12 weeks results (200 mg q.d., week 8): 9.80%
- [LDL] Mean percentage CFB - 24 weeks results (200 mg q.d., week 8): 9.80%
- [LDL] Median percentage CFB - 12 weeks results (200 mg q.d., week 8): 8.13%
- [LDL] Median percentage CFB - 24 weeks results (200 mg q.d., week 8): 8.13%
- [LDL] Mean percentage CFB - 12 weeks results (200 mg q.d., week 12): 16.80%
- [LDL] Mean percentage CFB - 24 weeks results (200 mg q.d., week 12): 16.80%
- [LDL] Median percentage CFB - 12 weeks results (200 mg q.d., week 12): 11.50%
- [LDL] Median percentage CFB - 24 weeks results (200 mg q.d., week 12): 11.50%
- [LDL] Mean percentage CFB - 24 weeks results (200 mg q.d., week 16): 12.24%
- [LDL] Median percentage CFB - 24 weeks results (200 mg q.d., week 16): 9.19%
- [LDL] Mean percentage CFB - 24 weeks results (200 mg q.d., week 20): 14.33%
- [LDL] Median percentage CFB - 24 weeks results (200 mg q.d., week 20): 10.33%
- [LDL] Median percentage CFB - 24 weeks results (200 mg q.d., week 24): 13.81%
- [LDL] Mean CFB (50 mg q.d., week 1): 0.011 mmol/L
- [LDL] Median CFB (50 mg q.d., week 1): 0.005 mmol/L
- [LDL] Mean CFB (50 mg q.d., week 2): -0.057 mmol/L
- [LDL] Median CFB (50 mg q.d., week 2): -0.040 mmol/L
- [LDL] Mean CFB (50 mg q.d., week 4): 0.047 mmol/L
- [LDL] Median CFB (50 mg q.d., week 4): 0.025 mmol/L
- [LDL] Mean CFB (50 mg q.d., week 8): 0.142 mmol/L
- [LDL] Median CFB (50 mg q.d., week 8): 0.130 mmol/L
